Tests used:
[1] = Cell viability assay (MTT), MIAPaCa-2; conditions: human, MIAPaCa-2 pancreatic cancer cells
Method: (§1) After synthesizing the functionalized aminobenzoboroxoles, these molecules were evaluated for their general cytotoxicity against breast cancer cell lines (MDA-MB-231) and pancreatic cancer cell lines (MIAPaCa-2).
(§2) Human pancreatic cancer MIAPaCa-2 cells were purchased from ATCC and were maintained in D-MEM supplemented with 10% FBS, 2.5% horse serum, and 1% Penicillin Streptomycin in a humidified atmosphere of 5% CO2 at 37° C. Human breast cancer MDA-MB-231 cells were purchased from ATCC and were maintained in D-MEM supplemented with 10% FBS and 1% Penicillin Streptomycin in a humidified atmosphere of 5% CO2 at 37° C. […] DMSO was added as a negative control. To determine the cell viability, MTT (3-(4,5-dimethylthiazolyl-2)-2,5-diphenyltetrazolium bromide) was dissolved in PBS solution (5 mg/mL) and 10 μL was added to each well and incubated. After 4 hours, 100 μL of SDS (sodium dodecyl sulfate) solution (1 g in 10 mL of 0.01 N HCl) was added to solubilize formazan precipitate and incubated for an additional 4 hours. The absorbance of each well was then measured using a microplate reader at 570 nm. The absorbance of control wells was defined as 100% viability and all of the tested compounds were expressed as percentage relative to the control.

[2] = Cell viability assay (MTT), MDA-MB-231; conditions: human, MDA-MB-231 breast cancer cells
Method: as §1, §2

[3] = system: Human pancreatic cancer MIAPaCa-2 cells; experiment: Cell viability assay (MTT), MIAPaCa-2; conditions: for activity against MIAPaCa-2 cell lines: 12.5 μM concentration; for IC50: Homo sapiens, MIA PaCa-2
Method: as §1, §2

[4] = system: Human breast cancer MDA-MB-231 cells; experiment: Cell viability assay (MTT), MDA-MB-231; conditions: Homo sapiens, MDA-MB-231
Method: as §1, §2

SMILES	viability at 72 h, 12.5 µM [1] [%]	viability at 72 h, 50 µM [1] [%]	melting point [°C]	viability at 72 h, 12.5 µM [2] [%]	viability at 72 h, 50 µM [2] [%]	activity against MIAPaCa-2 cell lines [3]	IC50 [3] [µM]	IC50 [4] [µM]
OB1OCc2ccc(NCc3ccccc3)cc21 [Compound 2]	76.6	34.5	123 to 125	73.7	80.2	–	–	–
OB1OCc2ccc(NCc3ccc(F)cc3)cc21 [Compound 3]	87.2	73.6	135 to 137	84	91.7	–	–	–
OB1OCc2ccc(NCc3ccc(F)cc3F)cc21 [Compound 4]	90.9	63.9	136 to 138	80.2	90	–	–	–
OB1OCc2ccc(NCc3ccc(Cl)cc3Cl)cc21 [Compound 5]	86.4	65.8	106 to 108	75.2	75.7	–	–	–
OB1OCc2ccc(NCc3ccc(Cl)c(Cl)c3)cc21 [Compound 6]	95.3	62.6	128 to 130	69.2	68.7	–	–	–
O=C(O)c1ccc(CNc2ccc3c(c2)B(O)OC3)cc1 [Compound 7]	71.3	80.6	221 to 223	100	124	–	–	–
N#Cc1ccc(CNc2ccc3c(c2)B(O)OC3)cc1 [Compound 8]	80.8	47	141 to 143	77.7	109	–	–	–
Cc1ccc(CNc2ccc3c(c2)B(O)OC3)cc1 [Compound 9]	57.2	45.9	148 to 150	84.1	82.8	–	–	–
COc1ccc(CNc2ccc3c(c2)B(O)OC3)cc1 [Compound 10, 6-N-(p-methoxybenzyl)aminobenzoboroxole]	51.8	37.9	122 to 124	90.2	90	–	–	–
CN(C)c1ccc(CNc2ccc3c(c2)B(O)OC3)cc1 [Compound 11]	72.1	78.4	122 to 124	97.6	71.1	–	–	–
CCCCN(CCCC)c1ccc(CNc2ccc3c(c2)B(O)OC3)cc1 [Compound 12]	89.1	58.2	94 to 96	106	103	–	–	–
OB1OCc2ccc(NCc3ccc(N4CCCCC4)cc3)cc21 [Compound 13]	92	49.5	65 to 67	93.9	90.7	–	–	–
OB1OCc2ccc(NCc3ccc4c(c3)OCO4)cc21 [Compound 14]	88.9	69	136 to 138	88.5	102	–	–	–
O=C(Nc1ccc([N+](=O)[O-])c(C(F)(F)F)c1)c1ccc(CNc2ccc3c(c2)B(O)OC3)cc1 [Compound 15]	–	–	117 to 119	–	–	–	–	–
OB1OCc2ccc(NCc3cc4ccccc4nc3Cl)cc21 [Compound 16]	28.2	28.6	209 to 211	44.3	44.8	showed activity	8.3	11.5
O=NN(Cc1ccccc1)c1ccc2c(c1)B(O)OC2 [Compound 17]	83.5	51.5	108 to 110	121	115	–	–	–
COc1ccc(CN(N=O)c2ccc3c(c2)B(O)OC3)cc1 [Compound 18, 6-N-nitroso-N-(p-methoxybenzyl)amino-benzoboroxole]	83	61	109 to 111	119	123	–	–	–
O=NN(Cc1ccc(F)cc1)c1ccc2c(c1)B(O)OC2 [Compound 19]	77.7	62.8	121 to 123	128	108	–	–	–
O=NN(Cc1ccc(F)cc1F)c1ccc2c(c1)B(O)OC2 [Compound 20]	70.3	70.5	125 to 127	122	126	–	–	–
O=NN(Cc1ccc(Cl)cc1Cl)c1ccc2c(c1)B(O)OC2 [Compound 21]	95.7	69.5	121 to 123	134	106	–	–	–
O=NN(Cc1ccc(Cl)c(Cl)c1)c1ccc2c(c1)B(O)OC2 [Compound 22]	84.8	59.9	144 to 147	122	146	–	–	–
O=C(Nc1ccccc1)N(Cc1ccccc1)c1ccc2c(c1)B(O)OC2 [Compound 23]	49.6	30	116 to 118	116	47	–	–	–
COc1ccc(CN(C(=O)Nc2ccccc2)c2ccc3c(c2)B(O)OC3)cc1 [Compound 24]	22.4	17.5	104 to 106	63	53.9	showed activity	2.7	11.9
O=C(NC1CCCCC1)N(Cc1ccccc1)c1ccc2c(c1)B(O)OC2 [Compound 25]	64.8	39.4	125 to 127	80.9	128	–	–	–
COc1ccc(CN(C(=O)NC2CCCCC2)c2ccc3c(c2)B(O)OC3)cc1 [Compound 26]	45.5	25.1	156 to 158	96.3	60.8	–	–	–
O=C(NCCCl)N(Cc1ccccc1)c1ccc2c(c1)B(O)OC2 [Compound 27]	104	61.8	138 to 140	135	101	–	–	–
COc1ccc(CN(C(=O)NCCCl)c2ccc3c(c2)B(O)OC3)cc1 [Compound 28]	74.9	60.4	134 to 136	95.8	63.2	–	–	–
